For series [1] the following is noted: cited from earlier work.
Series [2] has as its target T1, D3 receptor (Chlorocebus aethiops, UniProt P52703).
T1 construct: expressed in transfected cells; host or cells: COS cells (membrane homogenate)
Nature of the series: D3 receptor binding activity ([3H]-YM 09151-2 displacement). Also noted: species or system African Green monkey. The note with it: COS cell pellets with recombinant D3; 0.5 nM 3H-YM 09151-2; nonspecific 1 mM spiperone. As for the experimental part:
(§1) Pellets of COS cells containing recombinantly produced D2 or D3 receptors from African Green monkey were used for the assays. The sample is homogenized in 100 volumes (w/vol) of 0.05M Tris HCl buffer at 4° C. and pH 7.4. The sample is then centrifuged at 30,000×g and resuspended and rehomogenized. The sample is then centrifuged as described and the final tissue sample is frozen until use. The tissue is resuspended 1:20 (wt/vol) in 0.05M Tris HCl buffer containing 100 mM NaCl.
(§2) Incubations are carried out at […] and contain 0.4 ml of tissue sample, 0.5 nM ^3 H-YM 09151-2 and the compound of interest in a total incubation of 1.0 ml. Nonspecific binding is defined as that binding found in the presence of 1 mM spiperone; without further additions, nonspecific binding is less than 20% of total binding. The binding characteristics of examples of this patent for the D2 and D3 receptor subtypes are shown in Table 2 for Rat Striatal Homogenates.

Series [3] addresses T2, human dopamine D4 receptor (Homo sapiens, UniProt P21917).
T2 construct: expressed in transfected cells
T2 sequence (P21917 1-419): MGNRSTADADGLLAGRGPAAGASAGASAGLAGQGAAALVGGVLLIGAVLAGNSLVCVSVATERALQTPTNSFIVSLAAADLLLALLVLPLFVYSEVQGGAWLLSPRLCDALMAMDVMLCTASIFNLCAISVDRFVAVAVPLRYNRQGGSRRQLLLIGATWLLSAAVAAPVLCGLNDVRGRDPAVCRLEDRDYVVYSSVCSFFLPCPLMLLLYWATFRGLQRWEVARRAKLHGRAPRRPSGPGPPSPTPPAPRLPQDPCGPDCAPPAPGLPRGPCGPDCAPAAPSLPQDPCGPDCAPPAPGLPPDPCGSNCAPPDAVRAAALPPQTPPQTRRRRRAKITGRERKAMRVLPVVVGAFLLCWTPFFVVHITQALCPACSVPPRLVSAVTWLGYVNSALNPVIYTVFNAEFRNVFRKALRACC
Nature of the series: D4 receptor binding activity ([3H]YM-09151-2 displacement). The note with it: human D4 clonal cell lines; 0.1 nM [3H]YM-09151-2; 60 minutes at 25° C.; pH 7.4. As for the experimental part:
Clonal cell lines expressing the human dopamine D4 receptor subtype were harvested in PBS and the cells centrifuged and the pellets stored at -80° C. until used in the binding assay. The pellets were resuspended and the cells lysed at 4° C. in 50 mM Tris pH 7.4 buffer containing 120 mM NaCl, 1 mM EDTA and 5 mM MgCl2. The homogenate is centrifuged at 48000×g for 10 minutes at 4° C. The resulting pellet is resuspended in fresh buffer and centrifuged again. After resuspension of the pellet in fresh buffer a […] aliquot is removed for protein determination. The remaining homogenate is centrifuged as above, the supernatant removed and the pellet stored at 4° C. until needed at which time it is resuspended to a final concentration of […] with 50 mM Tris buffer (pH 7.4) and 120 mM NaCl just prior to use. Incubations were carried out for 60 minutes at 25° C. in the presence of 0.1 nM [^3 H]YM-09151-2. The incubation was terminated by rapid filtration through Whatman GF/C filters and rinsed with 2×4 ml washes of chilled 50 mM Tris (pH 7.4) and 120 mM NaCl. Non-specific binding was determined with 1 mM spiperone and radioactivity determined by counting in an LKB beta counter. Binding parameters were determined by non-linear least squares regression analysis, from which the inhibition constant Ki could be calculated for each test compound. The binding characteristics of some examples of this invention are shown in Table 3 for the dopamine D4 binding assay.

The target in series [4] is D2 receptor (Chlorocebus aethiops, UniProt P52702). Nature of the series: D2 receptor binding activity ([3H]-YM 09151-2 displacement). The note with it: COS cell pellets with recombinant D2; 0.5 nM 3H-YM 09151-2; nonspecific 1 mM spiperone. Also noted: species or system African Green monkey. How it is done: as §1, §2
For series [5], the system named is D1 dopamine receptor. Particulars: background statement; cited from earlier work.
For series [6], the system named is D2 receptors. The note with it: background statement; cited from earlier work.

Consider six compounds from patent publication US5602168A, “1-(N'-(arylalkylaminoalkyl)) aminoisoindoles; dopamine receptor subtype specific ligands” (Neurogen Corporation, priority 1995, dated 1997).

The structures appear in SMILES notation. Where two headings read alike, the source gives them in different places. A value given as a limit tells only on which side of the number the result lay.

T1 sequence (P52703 whole entry): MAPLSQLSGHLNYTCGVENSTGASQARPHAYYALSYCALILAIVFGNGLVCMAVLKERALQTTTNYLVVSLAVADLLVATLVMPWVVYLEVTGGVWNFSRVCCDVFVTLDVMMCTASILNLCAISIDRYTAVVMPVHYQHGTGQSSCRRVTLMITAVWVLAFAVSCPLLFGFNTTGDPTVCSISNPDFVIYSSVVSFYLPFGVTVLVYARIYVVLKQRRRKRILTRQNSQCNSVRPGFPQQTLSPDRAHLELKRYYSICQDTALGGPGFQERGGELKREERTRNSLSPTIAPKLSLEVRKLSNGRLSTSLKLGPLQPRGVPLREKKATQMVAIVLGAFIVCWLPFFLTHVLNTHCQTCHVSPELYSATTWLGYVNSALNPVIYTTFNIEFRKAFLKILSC
Sequence of D2 receptor (P52702 whole entry): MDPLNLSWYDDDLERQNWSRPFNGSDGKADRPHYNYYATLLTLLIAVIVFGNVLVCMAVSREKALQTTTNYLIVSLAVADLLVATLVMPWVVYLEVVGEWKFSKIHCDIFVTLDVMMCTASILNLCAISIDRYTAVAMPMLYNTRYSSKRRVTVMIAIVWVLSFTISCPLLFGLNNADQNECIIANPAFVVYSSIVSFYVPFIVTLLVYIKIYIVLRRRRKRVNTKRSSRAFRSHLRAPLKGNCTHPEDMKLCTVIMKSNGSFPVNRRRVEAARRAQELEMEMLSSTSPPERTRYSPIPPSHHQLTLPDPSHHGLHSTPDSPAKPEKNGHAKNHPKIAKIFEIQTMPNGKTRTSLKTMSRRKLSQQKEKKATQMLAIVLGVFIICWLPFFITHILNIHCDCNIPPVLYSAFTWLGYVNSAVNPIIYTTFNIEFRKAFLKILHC

In the case of `CCN1CCCC1CNC(=O)c1cc(S(N)(=O)=O)ccc1OC` (stereo not shown) [sulpiride], the “incidence of extrapyramidal side effects (EPS)” value in series [1] (in vivo) is “lesser incidence of extrapyramidal side effects (EPS) than classical neuroleptics”.

For orientation: Ki means a dissociation constant, usually derived from enzyme kinetics or from competition with a known ligand. In the case of `CN(CCCc1ccccc1)CCNC1=NCc2ccccc21` [Compound 3, 1-(N-[2-{N'-(3-phenylpropyl)-N'-methyl}aminoethyl])aminoisoindole dioxolate], the values for the inhibition constant (Ki) in series [2], in series [3] and in series [4] were above 100000 nM, 100 nM and 1940 nM, respectively.

`c1cnc(N2CCN(CCCNC3=NCc4ccccc43)CC2)nc1` [Compound 2]: the inhibition constant Ki in series [2] was above 100000 nM; in series [3] it was 70 nM; in series [4], 1420 nM.

Take `CN1CCN(C2=Nc3cc(Cl)ccc3Nc3ccccc32)CC1` [clozapine]: the “incidence of extrapyramidal side effects (EPS)” value in series [1] (versus classical neuroleptics, background statement) is listed as “lesser incidence of extrapyramidal side effects (EPS) than classical neuroleptics”.

Regarding `O=C(CCCN1CCC(O)(c2ccc(Cl)cc2)CC1)c1ccc(F)cc1` [haloperidol], the “binding at D1 dopamine receptor” value in series [5] is given as “binds relatively weakly”. In addition, the “binding affinity at D2 receptors” value in series [6] is “in the subnanomolar range”.

`c1cnc(N2CCN(CCNC3=NCc4ccccc43)CC2)nc1` [Compound 1]: the Ki in series [2] is above 100000 nM; in series [3], 12 nM; in series [4], 2380 nM.
